# Reference: ChEMBL document CHEMBL4257566, “Design, synthesis and structure-based optimization of novel isoxazole-containing benzamide derivatives as FtsZ modulators” (Eur J Med Chem, 2018)
# Test system: Staphylococcus aureus
# Experiment: Antibacterial activity against methicillin-resistant Staphylococcus aureus ATCC 43300 after 24 hrs by broth microdilution based CLSI method
# Format: functional
# Details: ATCC 43300, 24 h
row,SMILES,MIC [µg/mL]
1,CCCOc1cccc(-c2cc(COc3ccc(F)c(C(N)=O)c3F)on2)c1,> 64
2,CC(C)(C)c1ccc(-c2onc(COc3ccc(F)c(C(N)=O)c3F)c2Br)cc1,> 64
3,NC(=O)c1c(F)ccc(OCc2cc(-c3ccccc3)on2)c1F,> 64
4,COc1cccc(-c2cc(COc3ccc(F)c(C(N)=O)c3F)on2)c1,> 64
5,NC(=O)c1c(F)ccc(OCc2cc(-c3ccc(Cl)cc3)on2)c1F,> 64
6,Cc1ccc(-c2cc(COc3ccc(F)c(C(N)=O)c3F)on2)cc1,> 64
7,N#Cc1ccc(-c2cc(COc3ccc(F)c(C(N)=O)c3F)on2)cc1,> 64
8,CCOc1cccc(-c2cc(COc3ccc(F)c(C(N)=O)c3F)no2)c1,> 64
9,NC(=O)c1c(F)ccc(OCc2cc(-c3ccc(C4CCCCC4)cc3)no2)c1F,> 64

# Test system: Staphylococcus aureus
# Experiment: Antibacterial activity against Staphylococcus aureus ATCC 25923 after 24 hrs by broth microdilution based CLSI method
# Format: functional
# Details: ATCC 25923, 24 h
row,SMILES,MIC [µg/mL]
1,CCCOc1cccc(-c2cc(COc3ccc(F)c(C(N)=O)c3F)on2)c1,> 64
2,CC(C)(C)c1ccc(-c2onc(COc3ccc(F)c(C(N)=O)c3F)c2Br)cc1,> 64
3,NC(=O)c1c(F)ccc(OCc2cc(-c3ccccc3)on2)c1F,> 64
4,COc1cccc(-c2cc(COc3ccc(F)c(C(N)=O)c3F)on2)c1,> 64
5,NC(=O)c1c(F)ccc(OCc2cc(-c3ccc(Cl)cc3)on2)c1F,> 64
6,Cc1ccc(-c2cc(COc3ccc(F)c(C(N)=O)c3F)on2)cc1,> 64
7,N#Cc1ccc(-c2cc(COc3ccc(F)c(C(N)=O)c3F)on2)cc1,> 64
8,CCOc1cccc(-c2cc(COc3ccc(F)c(C(N)=O)c3F)no2)c1,> 64
9,NC(=O)c1c(F)ccc(OCc2cc(-c3ccc(C4CCCCC4)cc3)no2)c1F,> 64

# Test system: Pseudomonas aeruginosa
# Experiment: Antibacterial activity against Pseudomonas aeruginosa ATCC 27853 after 24 hrs by broth microdilution based CLSI method
# Format: functional
# Details: ATCC 27853, 24 h
row,SMILES,MIC [µg/mL]
1,CCCOc1cccc(-c2cc(COc3ccc(F)c(C(N)=O)c3F)on2)c1,> 64
2,CC(C)(C)c1ccc(-c2onc(COc3ccc(F)c(C(N)=O)c3F)c2Br)cc1,> 64
3,NC(=O)c1c(F)ccc(OCc2cc(-c3ccccc3)on2)c1F,> 64
4,COc1cccc(-c2cc(COc3ccc(F)c(C(N)=O)c3F)on2)c1,> 64
5,NC(=O)c1c(F)ccc(OCc2cc(-c3ccc(Cl)cc3)on2)c1F,> 64
6,Cc1ccc(-c2cc(COc3ccc(F)c(C(N)=O)c3F)on2)cc1,> 64
7,N#Cc1ccc(-c2cc(COc3ccc(F)c(C(N)=O)c3F)on2)cc1,> 64
8,CCOc1cccc(-c2cc(COc3ccc(F)c(C(N)=O)c3F)no2)c1,> 64
9,NC(=O)c1c(F)ccc(OCc2cc(-c3ccc(C4CCCCC4)cc3)no2)c1F,> 64

# Test system: Escherichia coli
# Experiment: Antibacterial activity against Escherichia coli ATCC 25922 after 24 hrs by broth microdilution based CLSI method
# Format: functional
# Details: ATCC 25922, 24 h
row,SMILES,MIC [µg/mL]
1,CCCOc1cccc(-c2cc(COc3ccc(F)c(C(N)=O)c3F)on2)c1,> 64
2,CC(C)(C)c1ccc(-c2onc(COc3ccc(F)c(C(N)=O)c3F)c2Br)cc1,> 64
3,NC(=O)c1c(F)ccc(OCc2cc(-c3ccccc3)on2)c1F,> 64
4,COc1cccc(-c2cc(COc3ccc(F)c(C(N)=O)c3F)on2)c1,> 64
5,NC(=O)c1c(F)ccc(OCc2cc(-c3ccc(Cl)cc3)on2)c1F,> 64
6,Cc1ccc(-c2cc(COc3ccc(F)c(C(N)=O)c3F)on2)cc1,> 64
7,N#Cc1ccc(-c2cc(COc3ccc(F)c(C(N)=O)c3F)on2)cc1,> 64
8,CCOc1cccc(-c2cc(COc3ccc(F)c(C(N)=O)c3F)no2)c1,> 64
9,NC(=O)c1c(F)ccc(OCc2cc(-c3ccc(C4CCCCC4)cc3)no2)c1F,> 64

# Test system: Bacillus subtilis
# Experiment: Antibacterial activity against Bacillus subtilis ATCC 9372 after 24 hrs by broth microdilution based CLSI method
# Format: functional
# Details: ATCC 9372, 24 h
row,SMILES,MIC [µg/mL]
1,CCCOc1cccc(-c2cc(COc3ccc(F)c(C(N)=O)c3F)on2)c1,64
2,CC(C)(C)c1ccc(-c2onc(COc3ccc(F)c(C(N)=O)c3F)c2Br)cc1,1
3,NC(=O)c1c(F)ccc(OCc2cc(-c3ccccc3)on2)c1F,64
4,COc1cccc(-c2cc(COc3ccc(F)c(C(N)=O)c3F)on2)c1,64
5,NC(=O)c1c(F)ccc(OCc2cc(-c3ccc(Cl)cc3)on2)c1F,64
6,Cc1ccc(-c2cc(COc3ccc(F)c(C(N)=O)c3F)on2)cc1,8
7,N#Cc1ccc(-c2cc(COc3ccc(F)c(C(N)=O)c3F)on2)cc1,64
8,CCOc1cccc(-c2cc(COc3ccc(F)c(C(N)=O)c3F)no2)c1,32
9,NC(=O)c1c(F)ccc(OCc2cc(-c3ccc(C4CCCCC4)cc3)no2)c1F,> 64

# Test system: Bacillus pumilus
# Experiment: Antibacterial activity against Bacillus pumilus CMCC63202 after 24 hrs by broth microdilution based CLSI method
# Format: functional
# Details: CMCC63202, 24 h
row,SMILES,MIC [µg/mL]
1,CCCOc1cccc(-c2cc(COc3ccc(F)c(C(N)=O)c3F)on2)c1,> 64
2,CC(C)(C)c1ccc(-c2onc(COc3ccc(F)c(C(N)=O)c3F)c2Br)cc1,1
3,NC(=O)c1c(F)ccc(OCc2cc(-c3ccccc3)on2)c1F,> 64
4,COc1cccc(-c2cc(COc3ccc(F)c(C(N)=O)c3F)on2)c1,> 64
5,NC(=O)c1c(F)ccc(OCc2cc(-c3ccc(Cl)cc3)on2)c1F,> 64
6,Cc1ccc(-c2cc(COc3ccc(F)c(C(N)=O)c3F)on2)cc1,> 64
7,N#Cc1ccc(-c2cc(COc3ccc(F)c(C(N)=O)c3F)on2)cc1,> 64
8,CCOc1cccc(-c2cc(COc3ccc(F)c(C(N)=O)c3F)no2)c1,> 64
9,NC(=O)c1c(F)ccc(OCc2cc(-c3ccc(C4CCCCC4)cc3)no2)c1F,> 64

# Test system: Staphylococcus aureus
# Experiment: Antibacterial activity against clinical isolate of penicillin-resistant Staphylococcus aureus after 24 hrs by broth microdilution based CLSI method
# Format: functional
# Details: not given
row,SMILES,MIC [µg/mL]
1,CCCOc1cccc(-c2cc(COc3ccc(F)c(C(N)=O)c3F)on2)c1,> 64
2,CC(C)(C)c1ccc(-c2onc(COc3ccc(F)c(C(N)=O)c3F)c2Br)cc1,> 64
3,NC(=O)c1c(F)ccc(OCc2cc(-c3ccccc3)on2)c1F,> 64
4,COc1cccc(-c2cc(COc3ccc(F)c(C(N)=O)c3F)on2)c1,> 64
5,NC(=O)c1c(F)ccc(OCc2cc(-c3ccc(Cl)cc3)on2)c1F,> 64
6,Cc1ccc(-c2cc(COc3ccc(F)c(C(N)=O)c3F)on2)cc1,> 64
7,N#Cc1ccc(-c2cc(COc3ccc(F)c(C(N)=O)c3F)on2)cc1,> 64
8,CCOc1cccc(-c2cc(COc3ccc(F)c(C(N)=O)c3F)no2)c1,> 64
9,NC(=O)c1c(F)ccc(OCc2cc(-c3ccc(C4CCCCC4)cc3)no2)c1F,> 64
